Assay results from the OPERA property sets (Mansouri et al. 2018).
Peptide text beside a SMILES is read from it.

Row | Structure (SMILES) | logP
1 | Cc1ccc([N+](=O)[O-])cc1N | 1.87
2 | NS(=O)(=O)c1ccc(O)cc1 | 0.06
3 | c1cnccn1 | -0.26
4 | CCCN(CCC)S(=O)(=O)c1ccc(C(=O)O)cc1 | 3.21
5 | O=C(O)CCS | 0.43
6 | S=C=S | 1.94
7 | O=C(O)CN1CCCCC1 | -1.05
8 | CC[C@H](C)[C@H](NC(=O)[C@H](CC(C)C)NC(C)=O)C(N)=O (Ac-Leu-Ile-NH2) | 0.68
9 | COc1ccccc1NC(=O)Nc1ccccc1OC | 2.98
10 | O=C(O)Cc1c[nH]c2ccccc12 | 1.41
11 | COc1ccc(C=O)cc1C | 2.23
12 | COP(=O)(OC)OC(=CCl)c1cc(Cl)c(Cl)cc1Cl | 3.53
13 | Clc1cc(Cl)nc(-c2ccccc2)n1 | 4.17
14 | CC(=O)NC(=O)NC(C)=O | -0.68
15 | CN(C)CC/C=C1\c2ccccc2CSc2ccccc21 | 4.49
16 | C=CCOc1cc(N)ccc1C(=O)O | 1.25
17 | CCN(CC)S(=O)(=O)c1ccc(OC)c(N)c1 | 1.7
18 | CCC(=O)C1(c2cccc(OC(=O)C(C)(C)C)c2)CCN(C)CC1 | 2.59
19 | COCCN(C)c1ccc(Nn2c(C)ccc2C)nn1 | 2.16
20 | COc1ccc2ncccc2c1 | 2.2
21 | CCCCCCCCn1cc(C)c(=O)[nH]c1=O | 3.08
22 | CCC(C)c1cc([N+](=O)[O-])cc(C(C)CC)c1O (configuration not stated) | 4.8
23 | COc1cccc(C=O)c1O | 1.37
24 | COC(=O)c1cccc(O)c1 | 1.89

Row | Structure (SMILES) | logP
25 | OCCCc1cccnc1 | 0.6
26 | NC(=O)CCCc1cccnc1 | -0.08
27 | CS/C(C)=N/OC(=O)N(C)SN(C)C(=O)O/N=C(\C)SC | 1.7
28 | CCc1ccccc1O | 2.47
29 | NC(=O)N(CCCCCCN(N=O)C(N)=O)N=O | 0.58
30 | CN(C)C(N(C)C)=S(I)c1ccc(Cl)cc1[N+](=O)[O-] (configuration not stated) | -0.09
31 | ICCCI | 3.02
32 | COc1ccc(NC=O)cc1 | 1.03
33 | CC1COC(=O)O1 (configuration not stated) | -0.41
34 | CCOc1ccc2nc(S(N)(=O)=O)sc2c1 | 2.01
35 | O=C(O)c1ccccc1S | 2.39
36 | c1ccc(Nc2ccccc2)cc1 | 3.5
37 | CN(C)CCOC(=O)c1ccc(Cl)cc1 | 2.63
38 | CC(=O)Nc1cnc2ccccc2n1 | 1.53
39 | N#Cc1c[nH]c2ccccc12 | 2.32
40 | Nc1nc(N)nc(-c2cccc(C(F)(F)F)c2)n1 | 2.67
41 | O=[N+]([O-])CCO | -0.42
42 | CCSCCSP(=O)(OC)OC | 1.02
43 | Cc1cc(O)ccc1Cl | 3.1
44 | CCCCNC(=O)c1cccnc1 | 0.9
45 | COc1cc(C(=O)NN)ccn1 | -0.1
46 | O=C(O)c1ccc(C(F)(F)F)cc1 | 3.1
47 | O=[N+]([O-])Cc1ccccc1 | 1.75
48 | FC(F)(F)c1cccc(C2CNCCO2)c1 (configuration not stated) | 2.18

Row | Structure (SMILES) | logP
49 | CC(=O)OC1(C(=O)CO)CCC2C3CCC4=CC(=O)C=CC4(C)C3C(=O)CC21C (configuration not stated) | 2.43
50 | COc1cc(CCN)cc(OC)c1OC | 0.78
51 | NC(=O)CCCCc1ccncc1 | 0.42
52 | O=C(O)CSc1ccccc1 | 1.88
53 | CCCCCn1cnc2c(NC(C)=O)ncnc21 | 0.98
54 | C1CCOC1 | 0.46
55 | COC(=O)CCc1ccccc1 | 2.32
56 | NC(=S)N1CCCCC1 | 0.73
57 | O=C(O)C(c1ccccc1)c1ccccc1 | 3.09
58 | CC(C)NCC(O)COc1ccccc1 (configuration not stated) | 1.72
59 | CNc1nc(NC(C)(C)C)nc(SC(F)F)n1 | 3.91
60 | Cc1cc2ccccc2n1C | 2.82
61 | O=[N+]([O-])c1cc(Cl)ccc1Cl | 3.09
62 | CC12CCC(=O)C=C1CCC1C2C(O)CC2(C)C1CCC2(O)C(=O)COC(=O)CCCCCC(=O)O (configuration not stated) | 3.26
63 | CCC1(c2ccccc2)C(=O)NC(=O)N(C(C)C)C1=O (configuration not stated) | 2.58
64 | CCCCCCCCC1(c2ccncc2)CCC(=O)NC1=O (configuration not stated) | 4.04
65 | C/C(=N/Nc1nc(C)cc(C)n1)c1ccccc1C | 2.98
66 | CCOC(=O)NCCOc1ccc(Oc2ccccc2)cc1 | 4.3
67 | CN(C)P(=O)(N(C)C)N(C)C | 0.28
68 | O=C1C=CCO1 | -0.6
69 | COc1ccc(COC(=O)N(C)C)cc1 | 2.2
70 | CCN(CC)CCOC(=O)C=Cc1ccc(F)cc1 | 3.52
71 | CC(=O)Nc1ccc(O)cc1C | 0.17
72 | O=[N+]([O-])c1ccccc1Nc1ccccc1 | 3.66

Row | Structure (SMILES) | logP
73 | CCC(O)CC | 1.21
74 | CN1C(=O)SC(=Cc2ccc([N+](=O)[O-])o2)C1=O | 1.78
75 | C1CN2CCC1CC2 | 1.38
76 | O=[N+]([O-])C=Cc1ccc(Cl)cc1 | 2.44
77 | COC(=O)c1cc(O)c(O)c(O)c1 | 0.86
78 | Cc1cccc2cc[nH]c12 | 2.56
79 | NC(=O)Nc1ccccc1 | 0.83
80 | Cc1ccc2cc(C)c(C)cc2c1 | 4.73
81 | C=CCC1(C(C)C)C(=O)NC(=O)NC1=O | 1.15
82 | CCc1ccccc1-c1nc(N)nc(N)n1 | 1.65
83 | ClC(Cl)C(c1ccccc1)c1ccccc1 | 4.51
84 | Cc1n[nH]c(C(=O)N(C)C2CCCCC2)c1[N+](=O)[O-] | 1.68
85 | C=C1C(=O)OC2CC(C)C3C=CC(=O)C3(C)C(O)C12 (configuration not stated) | 0.36
86 | COC1CC(OC2CCC3(C)C(CCC4C3CCC3(C)C(C5=CC(=O)OC5)C(OC(C)=O)CC43O)C2)OC(C)C1O (configuration not stated) | 2.53
87 | CC(=O)OC(OC(C)=O)c1ccc([N+](=O)[O-])o1 | 1.06
88 | CC(=O)c1cccc(C(=O)O)c1 | 1.56
89 | CNC(=S)NC | -0.24
90 | Cc1ccc(S(=O)(=O)N(C)N=O)cc1 | 0.58
91 | O=P(O)(O)c1ccccc1 | 0.54
92 | O=[N+]([O-])CCc1ccccc1 | 2.08
93 | CC(=O)c1ccc2cccccc1-2 | 2.87
94 | O=C(O)CNC(=O)c1ccccc1 | 0.31
95 | NC(=O)C(Cc1ccccc1)NC(=O)C(N)Cc1ccccc1 (configuration not stated) | 1.13
96 | CCOC(=O)CC(SP(=S)(OC)OC)C(=O)OCC (configuration not stated) | 2.36

Row | Structure (SMILES) | logP
97 | Clc1ccc(Cl)c(-c2c(Cl)ccc(Cl)c2Cl)c1 | 6.55
98 | NNC(=O)c1ccncc1 | -0.7
99 | Oc1ccc(I)cc1 | 2.91
100 | CCNC(=O)CBr | 0.34
101 | Oc1ccccc1F | 1.71
102 | CCCCC[C@H](O)/C=C/[C@H]1[C@H](O)CC(=O)[C@@H]1C/C=C\CCCC(=O)O | 2.82
103 | COc1ccc(CCN)cc1OC | 0.77
104 | COc1cccc(CNC(=O)C2(O)C(C)CC3C4CCC5=CC(=O)C=CC5(C)C4(F)C(O)CC32C)c1 (configuration not stated) | 3.27
105 | CC(=O)c1ccc(C(=O)O)cc1 | 1.61
106 | O=C(O)c1ccccc1Nc1cccc(C(F)(F)F)c1 | 5.25
107 | Oc1cc(Cl)cc(Cl)c1Cl | 3.84
108 | COc1cc(S(C)=O)ccc1-c1nc2ncncc2[nH]1 (configuration not stated) | 0.53
109 | O=[N+]([O-])c1ccc2ncccc2c1 | 1.84
110 | COc1cc2c(c(OC)c1OC)-c1ccc(=O)c(OC)cc1[C@@H](NC(=O)C(F)(F)F)CC2 | 2.08
111 | CCCCN(CCCC)N=O | 2.63
112 | CC(=NO)c1cccs1 | 1.81
113 | CC(=O)NC(C)(C)C(N)=O | -0.87
114 | CN(C)c1ccc(N=Nc2ccccc2)cc1 | 4.58
115 | Nc1nc2ccccc2[nH]1 | 0.91
116 | N#CCCCc1ccccc1 | 2.21
117 | CC(O)Cc1ccccc1 (configuration not stated) | 1.97
118 | CC(C)(O)C(Cl)(Cl)Cl | 2.03
119 | CC[C@H](C)[C@H](NC(C)=O)C(=O)N[C@@H](CC(N)=O)C(N)=O (Ac-Ile-Asn-NH2) | -1.41
120 | CC1(O)CC23CC(O)C4(O)C(CC(O)C4(C)C)C(C)(O)C2CCC1C3O (configuration not stated) | 0.27

Row | Structure (SMILES) | logP
121 | OCCN1CCCCC1 | 0.96
122 | O=NN1CCCCC1 | 0.36
123 | CN1C(=O)c2ccccc2C1=O | 1.31
124 | C[C@H]1C[C@H]2[C@@H]3CCC4=CC(=O)C=C[C@]4(C)[C@@]3(F)[C@@H](O)C[C@]2(C)[C@@]1(O)C(=O)CCl | 2.48
125 | CCC(=O)O[C@]1(C(=O)CO)CC[C@H]2[C@@H]3CCC4=CC(=O)CC[C@]4(C)[C@H]3[C@@H](O)C[C@@]21C | 2.7
126 | O=C(O)CCCCCc1ccccc1 | 3.27
127 | CCOC(=O)C(=Cc1cccc(C)c1)C(=O)OCC | 3.55
128 | CN(C)C(N(C)C)=S(I)c1cccc([N+](=O)[O-])c1 (configuration not stated) | -0.88
129 | OCCBr | 0.23
130 | CC(C)(C)C(=O)NC(CO)C(O)c1ccc([N+](=O)[O-])cc1 (configuration not stated) | 1.33
131 | CN(C)c1ccnnc1 | -0.09
132 | CC#CC | 1.46
133 | O=Cc1cccnc1 | 0.29
134 | CCC(=O)C(CS(=O)(=O)c1ccccc1)c1ccc(OC)cc1 (configuration not stated) | 2.18
135 | Cc1ccc(S(=O)(=O)F)cc1 | 2.74
136 | O=C(O)c1ccc(Br)cc1 | 2.86
137 | O=C(OCCCc1cnc[nH]1)c1ccccc1 | 2.64
138 | Oc1nc2ccccc2[nH]1 | 1.12
139 | CNC(=O)Oc1cc(C)c(C)cc1C | 2.52
140 | N#Cc1cccc2[nH]ccc12 | 2.46
141 | c1ccc(-c2cc(-c3ccccc3)c(NCCN3CCOCC3)nn2)cc1 | 3.38
142 | Clc1cccc(Cl)c1 | 3.53
143 | C=CC(=O)OCC(C)C | 2.22
144 | CC(=O)NCC(=O)N[C@@H](CC(C)C)C(N)=O | -0.78

Row | Structure (SMILES) | logP
145 | O=[N+]([O-])c1nccn1CC(F)(F)CO | 0.04
146 | CN(C)C(N(C)C)=S(I)c1ccccc1C(=O)O (configuration not stated) | -1.4
147 | Cc1cccc(C(=O)NN)c1 | 0.74
148 | CCCCN1CCCCC1C(=O)Nc1c(C)cccc1C (configuration not stated) | 3.41
149 | COC(=O)c1ccc(N=NN(C)C)cc1 | 3.22
150 | O=C(Oc1ccccc1)n1cc(F)c(=O)[nH]c1=O | 0.64
151 | NC(=O)CCc1ccccn1 | -0.27
152 | Clc1ccc(-c2ccc(Cl)cc2Cl)c(Cl)c1 | 6.29
153 | NNC(=O)c1ccccc1Cl | 0.14
154 | CCCNC(=O)NS(=O)(=O)c1ccc(Cl)cc1 | 2.27
155 | COc1cccc2c1C(=N)c1c(O)c3c(c(O)c1C2=O)CC(O)(C(=O)CO)CC3OC1CC(N2CCOCC2)C(O)C(C)O1 (configuration not stated) | 1.8
156 | COC(=O)C(Cc1ccccc1)NC(C)=O (configuration not stated) | 0.92
157 | N#CCc1cccc(Oc2ccccc2)c1 | 3.03
158 | CC(C)S[C@@H]1O[C@H](CO)[C@H](O)[C@H](O)[C@H]1O | -1.26
159 | C=C(CC(Cl)(Cl)Cl)c1ccccc1 | 4.56
160 | CN(C)C(=O)Nc1cccc(F)c1 | 1.37
161 | COc1ccc(C(C)c2ccc(OC)cc2)cc1 | 4.52
162 | CCc1ccco1 | 2.4
